Measurements from patent US20160081938A1, “ACAMPROSATE FORMULATIONS, METHODS OF USING THE SAME, AND COMBINATIONS COMPRISING THE SAME” (Synchroneuron Inc., priority 2013, published 2016).

How the values were obtained:
[1] = Simulated sustained release in a dog model; format: in vivo; conditions: sustained presentation over eight hours
Procedure: It has been discovered that the shape of the PK curve and not just the AUC can make a difference to efficacy. Specifically, having a plasma concentration above a threshold for several hours per day (e.g., 4-8 hours) may be more efficacious than maintaining a concentration just below that threshold for 24 hours a day. […] In this model, the drug conserved by avoiding a high single dose and high Cmax was distributed across several hours, giving a several hour period in which the plasma concentration of acamprosate was higher than the plasma concentration after administration of a single dose of the immediate release version.
In a dog study of simulated sustained release of acamprosate it was shown that through sustained release a higher residence time above a threshold can be attained than by giving the same dose all at once. Combining the results from the dog study with the implications of the reported human cases we contemplate that acamprosate delivered by a sustained release system can relieve symptoms of TD and other neuropsychiatric disorders given once or twice a day. […] Thus it appears that a total daily dose of less than one gram of sustained release acamprosate, given on a twice a day basis, or perhaps even on a once a day basis, could be adequate to treat TD in the case examples. […]

[2] = high solubility and low permeability; cited from earlier work

CC(=O)NCCCS(=O)(=O)O [Acamprosate, 3-(acetylamino)-1-propanesulfonic acid]
residence time above a threshold concentration vs immediate release of the same dosage [1]: significantly longer residence time | Biopharmaceuticals Classification System (BCS) class [2]: Class III
